One assay addresses T1, M1 muscarinic receptor (Homo sapiens, UniProt P11229).
T1 construct: expressed in transfected cells; host or cells: CHO
T1 sequence (P11229 1-460): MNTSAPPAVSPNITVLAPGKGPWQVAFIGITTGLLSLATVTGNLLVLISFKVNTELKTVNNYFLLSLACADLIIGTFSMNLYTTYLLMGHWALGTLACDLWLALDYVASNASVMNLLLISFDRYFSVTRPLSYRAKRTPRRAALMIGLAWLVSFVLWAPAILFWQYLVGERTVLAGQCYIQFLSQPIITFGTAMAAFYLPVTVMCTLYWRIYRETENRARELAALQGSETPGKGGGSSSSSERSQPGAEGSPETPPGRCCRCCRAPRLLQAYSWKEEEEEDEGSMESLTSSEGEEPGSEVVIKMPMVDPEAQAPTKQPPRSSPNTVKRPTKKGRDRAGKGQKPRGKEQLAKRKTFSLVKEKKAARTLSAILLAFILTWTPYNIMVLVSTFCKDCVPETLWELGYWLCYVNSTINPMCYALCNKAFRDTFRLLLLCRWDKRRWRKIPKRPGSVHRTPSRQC
Nature of the assay: Functional mobilization of intracellular calcium (FLIPR) in CHO cells expressing M1. Particulars: for pEC50: CHO cells expressing M1, calcium mobilization; for Emax: CHO, 100% efficacy is the maximum response obtained with the Carbachol control. The assay is classed as cell-based. How it is done:
(§1) Functional Mobilization of Intracellular Calcium to Determine Muscarinic Receptor Activity:
(§2) CHO cells expressing muscarinic receptors (M1 to M5) are grown as monolayers in tissue culture flasks at 37° C. in a humidified atmosphere containing 5% CO2 and passaged every 3-5 days. The growth media is Dulbecco's modified eagles medium (DMEM, Gibco Cat#12430-054), containing 25 mM Hepes and supplemented with Fetal Bovine Serum (Hyclone, Cat#SH30071.03), 0.1 mM of MEM non-essential amino acids (GIBCO, Cat#11140-050), 1 mM MEM Sodium Pyruvate (GIBCO Cat#11360-070) and 100 units/ml of Penicillin G and 100 μg/ml of Streptomycin (GIBCO Cat#15140-122). The recombinant muscarinic receptor cell lines are grown under antibiotic pressure with media containing 25 μg/ml zeocin and 500 μg/ml G418 (MI-CHO), 4 μg/ml puromycin, 50 μg/ml zeocin and 2.5 μg/ml blasticidin (M2 and M4-CHO) or 50 μg/ml zeocin and 4 μg/ml puromycin (M3 and M5-CHO).
(§3) Cells are harvested at 80-90% confluence using Versene (GIBCO Cat#15040-066), collected by centrifugation and seeded 18-24 hours prior to running the calcium assay at a density of 5,000-10,000 cells/well in […], clear-bottomed 384-well plates (BD Biocoat, poly-D-lysine, Cat#356663). The day of the experiment, the cells are washed with a plate washer (Bioteck Instruments, ELX 405) using bath 1 buffer (140-mM NaCl, 4.5-mM KCl, 2-mM CaCl2, 1-mM MgCl2, 10-mM Hepes-Na, 10-mM Glucose, pH 7.4, with NaOH) containing 1 mM Probenecid. Next, the calcium dye Fluo-3 (25 μl well of Fluo-3 AM at 4 μM, Molecular Probes F-1241, in Bath 1 buffer containing 1 mM Probenecid) is added to the 25 μl of Bath 1 remaining in each well after the plate wash and the dye is loaded at 37° C. in the tissue culture incubator for 60-90 min. The fluorescent dye is removed using the plate washer with Bath 1 containing 1 mM Probenecid, leaving 25 μl/well of this solution after the wash. Alternatively, cells can be loaded with the calcium indicator from Molecular Devices (Calcium 3 Assay Reagents, Cat #R7181) adding 5 μl of a 5× solution dye in Bath 1 containing 1 mM Probenecid (10 ml per dye flask cat#R7182 to generate a solution 20×) to 20 μl of the same buffer. After loading for 60 min, the experiment can be run without having to remove the dye.
(§4) Compounds are prepared at a 2× fold concentration in a 96-well plate (round bottom, Costar Corning cat#3656), by reconstituting the pre-spotted compounds in bath 1 containing 1 mM probenecid. The final concentration DMSO is 0.5%, and the amount of DMSO is normalized across the assay plate. To determine an agonist action of the compounds on muscarinic receptors, the reconstituted compounds are added (25 μl compound/well) to the cell assay plate (containing 25 μl/well) using the multi-channel robotic system of the FLIPR 3 Instrument (Molecular Devices, Sunnyvale, Calif.). To determine a functional inhibitory action of the compounds on muscarinic receptors, the reconstituted compounds are added (25 μl compound/well) to the assay plate and pre-incubated for 15 min prior to adding 25 μl of Carbachol at 3× the EC80 for each muscarinic subtype. Alternatively, the compounds can be co-applied simultaneously with the agonist. In both assay modes, the fluorescence is recorded for 60 sec (excitation wavelength is […] and emission wavelength 540 nm) using the FLIPR 3 instrument.
(§5) The potency, efficacy and selectivity of the muscarinic compounds were evaluated by screening the compound activity across the whole family (M1 to M5 cells). Compounds were also screened for activity on other proteins such as other GPCRs and ion channels to determine selectivity on M4 receptors.
(§6) Examples of activities and efficacies of the muscarinic compounds of formulae (I, I-A, and I-B) on modulating M1 and M4 receptors are shown below in Table 4. […]

The target in the next assay is T2, M4 muscarinic receptor (Homo sapiens, UniProt P08173).
T2 construct: expressed in transfected cells; host or cells: CHO
T2 sequence (P08173 1-479): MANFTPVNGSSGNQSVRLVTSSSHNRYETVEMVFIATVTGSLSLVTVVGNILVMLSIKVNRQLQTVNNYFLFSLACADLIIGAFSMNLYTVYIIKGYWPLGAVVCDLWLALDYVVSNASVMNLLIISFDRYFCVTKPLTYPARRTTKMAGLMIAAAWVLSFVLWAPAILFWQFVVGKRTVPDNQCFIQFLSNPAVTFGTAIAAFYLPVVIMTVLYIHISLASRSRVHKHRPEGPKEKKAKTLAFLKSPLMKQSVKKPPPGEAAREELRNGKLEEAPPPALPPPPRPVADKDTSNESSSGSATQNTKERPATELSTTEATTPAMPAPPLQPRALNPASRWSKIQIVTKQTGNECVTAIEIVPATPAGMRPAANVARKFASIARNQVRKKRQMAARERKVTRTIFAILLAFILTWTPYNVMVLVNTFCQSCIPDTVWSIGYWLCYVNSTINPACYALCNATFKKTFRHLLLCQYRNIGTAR
Nature of the assay: Functional mobilization of intracellular calcium (FLIPR) in CHO cells expressing M4. The assay is classed as cell-based. The following applies: for pEC50: CHO cells expressing M4, calcium mobilization; for Emax: CHO, 100% efficacy is the maximum response obtained with the Carbachol control. As for the experimental part:
as §1, §2, §3, §4, §5, §6

pEC50: −log10 of the molar value.

`CCOC(=O)N1C2CCC1CC(N1CCC3(CCCN(C(C)=O)c4ccccc43)CC1)C2` (stereo not shown) [Compound 28]: on M1 muscarinic receptor, the pEC50 is above 5.70 and the Emax lay in the range of 25 to 100%. On M4 muscarinic receptor, the pEC50 is above 5.70 and the Emax is 25 to 100%.
On to `CC(=O)N1CCCC2(CCN(CCC(C)C)CC2)c2ccccc21` [Compound 34], for which, at M1 muscarinic receptor, the pEC50 is below 5.00 and the Emax was below 25%. On M4 muscarinic receptor, the pEC50 was below 5.00 and the Emax is below 25%.
As to `NC(=O)N1CCCC2(CCN(CC3CCCCC3)CC2)c2ccccc21` [Compound 20], the values for the pEC50 on M1 muscarinic receptor and on M4 muscarinic receptor were below 5.00 and 5.00 to 5.70, respectively. Besides, the Emax at M1 muscarinic receptor and at M4 muscarinic receptor was below 25% each time.
On to `CCOC(=O)N1CCC(N2CCC3(CCCN(C(=O)N(C)C)c4ccccc43)CC2)CC1` [Compound 23], for which, on M1 muscarinic receptor, the pEC50 is 5.00 to 5.70 and the Emax fell in the range of 25 to 100%. Moreover, at M4 muscarinic receptor, the pEC50 is above 5.70 and the Emax lay within 25 to 100%.
`CN(C)C(=O)N1CCCC2(CCN(C3C[C@@H]4CC[C@@H]3C4)CC2)c2ccccc21` (stereo partly shown) [Compound 33]: at M1 muscarinic receptor, the pEC50 was below 5.00 and the Emax is below 25%. On M4 muscarinic receptor, the pEC50 is below 5.00 and the Emax is below 25%.
For the compound `CCOC(=O)N1CCC(N2CCC3(CCC(=O)Nc4ccccc43)CC2)CC1` [Compound 18], on M1 muscarinic receptor, the pEC50 is above 5.70 and the Emax lay in the range of 25 to 100%. At M4 muscarinic receptor, the pEC50 is above 5.70 and the Emax was in the range of 25 to 100%.
With `CN(C)C(=O)N1CCCC2(CCN(C3CCCCCC3)CC2)c2ccccc21` [Compound 11], on M1 muscarinic receptor, the pEC50 was below 5.00 and the Emax was below 25%. Also, on M4 muscarinic receptor, the pEC50 was below 5.00 and the Emax is below 25%.
`CC(=O)N1CCCC2(CCN(CCC(C)(C)C)CC2)c2ccccc21` [Compound 32]: at M1 muscarinic receptor, the pEC50 was 5.00 to 5.70 and the Emax was below 25%. At M4 muscarinic receptor, the pEC50 was above 5.70 and the Emax fell in the range of 25 to 100%.
Taken in the same sequence, the figures for `CCOC(=O)N1C2CCC1CC(N1CCC3(CCCN(C(=O)N(C)C)c4ccccc43)CC1)C2` (stereo not shown) [Compound 10] were below 5.00, below 25%, 5.00 to 5.70 and below 25%.
On to `CC(=O)N1CCCC2(CCN(C3C[C@@H]4CC[C@@H]3C4)CC2)c2ccccc21` (stereo partly shown) [Compound 17], for which, at M1 muscarinic receptor, the pEC50 is below 5.00 and the Emax was below 25%. For the same compound, at M4 muscarinic receptor, the pEC50 is below 5.00 and the Emax was below 25%.
Turning to `CN1C(=O)CCC2(CCN(CCC(C)(C)C)CC2)c2ccccc21` [Compound 3], at M1 muscarinic receptor, the pEC50 is 5.00 to 5.70 and the Emax lay in the range of 25 to 100%. Moreover, at M4 muscarinic receptor, the pEC50 was above 5.70 and the Emax is 25 to 100%.
Regarding `CN1C(=O)CCC2(CCN(C3CCCCCC3)CC2)c2ccccc21` [Compound 12], on M1 muscarinic receptor, the pEC50 was 5.00 to 5.70 and the Emax lay within 25 to 100%. Further, at M4 muscarinic receptor, the pEC50 was above 5.70 and the Emax lay in the range of 25 to 100%.
On to `CCOC(=O)N1C2CCC1CC(N1CCC3(CCCN(C(N)=O)c4ccccc43)CC1)C2` (stereo not shown) [Compound 22], for which, on M1 muscarinic receptor, the negative-log EC50 (pEC50) was above 5.70 and the Emax lay in the range of 25 to 100%. In addition, on M4 muscarinic receptor, the pEC50 is above 5.70 and the Emax was in the range of 25 to 100%.

The term pEC50 denotes −log10 of the EC50, conventionally taken in molar units. A word on the Emax: it is the greatest response seen or fitted, relative to the assay's reference.
